Patent publication US20100129319A1, “TREATMENT OF DISEASE OR INJURY OF THE NERVOUS SYSTEM USING AGENTS THAT DECREASE THE ACTIVITY OF THE MELANOCORTIN 4 RECEPTOR” (priority 2006, published 2010)
Bridges are numbered along the chain shown (N, C = ends). [ ]: non-standard residue; d: D form. d2Nal = N[C@H](Cc1ccc2ccccc2c1)C(=O)O; dPhe(diCl) = diCl-D-Phe

Columns and labels:
MC3 = MC3 (Homo sapiens, UniProt P41968); settings: printed in the column Selectivity (over MC3); cited from earlier work
[1] = biological target: melanocortin 4 receptor (MC4R), murine (Mus musculus) (UniProt P56450); assay: cell-based or functional assay
melanocortin 4 receptor (MC4R), murine (Mus musculus), sequence (P56450 whole entry): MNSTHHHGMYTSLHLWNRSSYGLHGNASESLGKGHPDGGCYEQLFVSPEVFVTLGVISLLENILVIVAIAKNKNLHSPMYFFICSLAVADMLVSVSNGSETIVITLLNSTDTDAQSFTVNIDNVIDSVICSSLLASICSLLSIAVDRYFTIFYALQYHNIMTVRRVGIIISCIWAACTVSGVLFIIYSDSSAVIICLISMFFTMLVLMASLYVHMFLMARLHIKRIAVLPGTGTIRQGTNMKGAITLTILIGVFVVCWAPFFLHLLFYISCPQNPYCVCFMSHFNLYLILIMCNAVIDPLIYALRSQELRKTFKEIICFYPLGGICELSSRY

adult neural stem cells [2] = assay: ATP assay (intracellular ATP, cell number) in suspension cultures; type: cell-based, mice; settings: for ATP levels: 1-100 nM, 3 days, suspension cultures, vs control
Description: (§1) The anterior lateral wall of the lateral ventricle wall (LVW) of 5 week old mice was enzymatically dissociated at 37° C. for 20 min in 0.8 mg/mL hyaluronidase and 0.5 mg/mL trypsin in DMEM containing 4.5 mg/mL glucose and 80 units/mL DNase. The cells were diluted in 5 mL of DMEM/F12 medium (containing B27 supplement, […] HEPES Ph 7.4, 100 units/mL penicillin, and 100 micrograms/mL streptomycin). After passing through a 70 micron strainer, the cells were pelleted at 240×g for 5 minutes, washed and recentrifuged. The supernatant was subsequently removed and the cells resuspended in medium supplemented with 20 nanogram/mL EGF, plated out in culture dishes and incubated at 37° C. Neurosphere cultures were ready to be split approximately 7 days after plating.
To split the neurosphere cultures, neurospheres were collected by centrifugation at 240×g for 5 minutes. The supernatant was discarded and the neurospheres were resuspended in 0.5 mL Trypsin/EDTA in HBSS (1×) and incubated at 37° C. for 2 minutes. During this period, the neurospheres were triturated gently to aid dissociation. Following a further 2 min incubation at 37° C. and trituration, 2 volumes of DMEM-F12+B27 medium were added. The cells were pelleted at 220×g for 4 min and resuspended in DMEM/F12+B27-medium containing 10 ng/mL EGF and 5 ng/mL bFGF. Subsequently the cultures were plated out and incubated at 37° C.
Cells were harvested split as in example 1, except for omission of the growth factors in the media, and seeded as suspension cells, at a density of 10,000 cells/well on 96-well plates in DMEM/F12 supplemented with 1, 10 or 100 nM MC4R antagonist or without (control cells). Alternatively, adherent cells were seeded at a density of 30,000 cells/well on poly-D-lysine-coated 96-well plates in DMEM/F12 supplemented with 1% fetal calf serum (FCS). […]
The following experiment was performed in quadruplicate. […] Intracellular ATP was measured using a Cell Viability kit SL according to the manufacturer's instructions (#188-441, BioThema, Sweden). […]

MC4R = MC4R (Homo sapiens, UniProt P32245); settings: cited from earlier work; for Selectivity (over MC3): MC4R over MC3; for Ki: read-out: Affinity for MC4R (Ki)
MC4R, sequence (P32245 whole entry, species assumed, the tested form may be a part): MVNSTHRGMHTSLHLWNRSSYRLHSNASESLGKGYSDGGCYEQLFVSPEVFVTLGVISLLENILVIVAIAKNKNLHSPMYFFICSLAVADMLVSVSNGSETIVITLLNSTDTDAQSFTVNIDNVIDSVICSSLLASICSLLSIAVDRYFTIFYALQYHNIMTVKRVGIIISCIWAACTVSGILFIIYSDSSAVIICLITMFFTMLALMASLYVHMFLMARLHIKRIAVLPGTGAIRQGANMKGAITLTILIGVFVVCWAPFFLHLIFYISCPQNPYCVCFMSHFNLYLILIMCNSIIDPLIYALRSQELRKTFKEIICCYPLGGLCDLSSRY

[3] = Body weight during i.c.v. infusion (Example 4); type: in vivo, rats
Description: BrdU was administered together with HS014 i.c.v.

[4] = tested on: neuronal stem/progenitor cell proliferation in the SVZ; settings: i.c.v. infusion of 6.25, 62.5 or 625 ng/day for two weeks
Description: To further characterize MC4R antagonist-stimulation of neogenesis, in vivo studies were performed. The effect of HS014 on proliferation (BrdU incorporation) was tested over a two week period at doses ranging from 6.25 to 625 ng/24h. Administration was done by i.c.v. infusion into the right lateral ventricle. BrdU was administered together with HS014 i.c.v. The animal's body weight was measured throughout the experiment. After termination of the experiment, BrdU expression was detected by immunohistochemistry on brain sections from the subependymal layer of the lateral ventricle wall as well as on the sub granular cells in dentate gyrus. […]
As an additional marker for understanding whether a dose that is effective in eliciting a response controlled by the central nervous system, weight gain was also monitored throughout the experiment by weighing the animals. […]
At the end of the experiment the rats were anaesthetized with sodium pentobarbital (120 mg, i.p.) and transcardially perfused with 90 ml of 0.9% NaCl and 4% PFA solution. […] As detection, Vectastain Elite (Vector) 1/100 was used and finally, developing was done by Sigma fast DAB tablet monitored in microscope, sections were then counterstained by HTX followed by dehydration and clearing.
Quantification was performed using a Nikon eclipse E6000 microscope at a magnification of 40×. […]

adult neural stem cells [5] = assay: BrdU incorporation ELISA in adherent cultures; type: cell-based, mice; settings: 1-100 nM, 3 days, vs control
Description: as §1
To split the neurosphere cultures, neurospheres were collected by centrifugation at 240×g for 5 minutes. The supernatant was discarded and the neurospheres were resuspended in 0.5 mL Trypsin/EDTA in HBSS (1×) and incubated at 37° C. for 2 minutes. During this period, the neurospheres were triturated gently to aid dissociation. Following a further 2 min incubation at 37° C. and trituration, 2 volumes of DMEM-F12+B27 medium were added. […]
DNA synthesis is commonly used to measure cell proliferation. […] After incorporation if the thymidine analogue into DNA, BrdU was detected by immunoassay. […]

[6] = i.c.v. 2×1 nanomoles daily for 6 days or 0.16 nanomoles per hour for 2 weeks; cited from earlier work
[7] = tested on: 6-OHDA-lesioned rat model of Parkinson's disease; assay: Amphetamine-induced rotation in the 6-OHDA-lesioned rat model of Parkinson's disease (Example 5); type: in vivo; settings: 62.5 ng/day i.c.v. for 2 weeks
Text: In this study, the neurorestorative action of HS014 (from Sigma Aldrich) was investigated in the 6-hydroxydopamine (6-OHDA)-lesioned rat model of Parkinson's disease where the animals have a partial, unilateral loss of dopaminergic neurons. The lesion is induced by a single injection of 6-OHDA in the median forebrain bundle (see below). Upon amphetamine stimulation, the lesioned animals will display ipsiversive rotational behavior due to the imbalance in dopamine release resulting from the unilateral loss of dopaminergic cells. This allows the functional effects of a compound tested in this model to be quantified by counting the number of amphetamine-induced rotations.
Male Sprague-Dawley rats weighing 280-320 g were housed in a temperature-controlled room under a 12 h light/dark cycle with free access to food and water. Thirty minutes prior to surgery, animals were injected intraperitoneally with pargyline (5 mg/kg) and desipramine (25 mg/kg). Rats were then placed in a stereotactic frame under general anaesthesia (Halothane). A small bur-hole was made in the right side of the skull. Each animal was given a unilateral injection of 4 μg, 6-OHDA (in 2 μl sterile water with 0.1% ascorbic acid) into the right medial forebrain bundle at co-ordinates −2.8 mm from bregma, 2 mm lateral to the midline, and 8.6 mm below skull according to the atlas of Paxinos and Watson. The 6-OHDA injection was made over a 5 min period using a 5 μl Hamilton syringe. The rats were allowed to recover for 5 weeks following the lesion. The animals were then implanted with an Alzet minipump attached to a cannula to allow infusion of HS014 or vehicle into the right lateral ventricle over a period of 2 weeks. The Alzet minipump was removed […].
24 rats were divided into 2 groups, individual rats being randomly assigned to a treatment group based on their baseline rotation (5 weeks post lesion) so they were equally distributed. […] Rotational activity was measured by counting the total number of turns for the duration of the experiment. […] Body weight was also recorded weekly. […]

MC3, sequence (P41968 whole entry, species assumed): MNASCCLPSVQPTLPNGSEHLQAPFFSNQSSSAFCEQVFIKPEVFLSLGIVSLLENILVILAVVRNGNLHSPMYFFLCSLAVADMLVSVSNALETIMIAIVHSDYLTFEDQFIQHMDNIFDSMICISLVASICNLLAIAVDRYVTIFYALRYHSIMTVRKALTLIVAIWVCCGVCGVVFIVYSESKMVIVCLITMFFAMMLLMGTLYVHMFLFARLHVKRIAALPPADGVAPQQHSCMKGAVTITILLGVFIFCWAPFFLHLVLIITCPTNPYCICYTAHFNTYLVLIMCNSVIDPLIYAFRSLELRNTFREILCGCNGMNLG

NCCC(=O)N[C@H](Cc1ccc(Cl)cc1Cl)C(=O)N1CCN(c2ccccc2CNCCc2cccs2)CC1 [Compound10, 4-{(2R)-[3-Aminopropionylamido]-3-(2,4-dichlorophenyl)propionyl}-1-{2-[(2-thienyl)ethylaminomethyl]phenyl}piperazine]
potency in cAMP assay (MC3): No potency i cAMP

Agouti (87-132) (peptide)
proliferation in the ATP-assay, at 400 nM (times control) [1]: 1.6

Agouti (87-132): endogenous MC4R antagonist peptide analogue (TPLSAPCVATRNSCKPPAPACCDPCASCQCRFFRSACSCRVLSLNC; UniProt P42127 87-132, looked up, fragment)
increase in proliferation (ATP-assay) (adult neural stem cells [2]; at 400 nM): 1.6 times control

HS024
Selectivity (over MC3) (MC4R): 20-fold | Ki (MC4R): 0.29 nM

[acetyl group]-Cys-Glu-His-(D-2-Nal)-Arg-Trp-Gly-Cys-Pro-Pro-Lys-Asp-[amide group] (Ac-CEH[d2Nal]RWGCPPKD-NH2; disulfide 1-8 (inferred)) [HS014]
Selectivity (over MC3) (MC4R): 10-fold | Ki (MC4R): 3.2 nM | dose at which weight gain was first significant ([3]; i.c.v. infusion for two weeks): 62.5 ng/day | dose with greatest weight gain ([3]; i.c.v. infusion for two weeks): 625 ng/day | weight gain ([3]; i.c.v. infusion of 6.25, 62.5 or 625 ng/day for two weeks): increased in a dose-dependent manner | dose with greatest effect on neuronal stem/progenitor cell proliferation (BrdU counts, SVZ) [4]: 62.5 ng/day | BrdU incorporation (adult neural stem cells [5]): increase BrdU incorporation | ATP levels (adult neural stem cells [2]): increase ATP levels | food intake and body weight [6]: considerable increase in food intake and body weight | persistence of improvement after administration was stopped [7]: maintained for at least two weeks | rotation at week 4 compared to pre-pump levels ([7]; then 2 weeks without treatment): approximately 30% | net ipsiversive rotations at weeks 1-4 compared to the pre-pump response ([7]; all P<0.01): significant reduction

[acetyl group]-Cys-Glu-His-(diCl-D-Phe)-Arg-Trp-Gly-Cys-Pro-Pro-Lys-Asp-[amide group] (Ac-CEH[dPhe(diCl)]RWGCPPKD-NH2; not fully specified (bridges); also: cyclic, bridge not given here) [HS028]
Selectivity (over MC3) (MC4R): 80-fold | Ki (MC4R): 0.95 nM | ATP levels (adult neural stem cells [2]): increase ATP levels
